Measured values published in patent publication US8273744B2, “AMPK modulators” (priority 2008, dated 2012).

tested on: AMPK; assay: In vitro assay of AMPK activity (AlphaScreen, phosphorylation of human ACC1 fragment aa 1-120); type: biochemical; settings: AMPK partially purified from HEK cells, 100 uM ATP, room temperature, 60 minutes, read-out: ED50 (the source's name)
Protocol: AMPK activity was measured by the phosphorylation of the amino-teminal fragment of human acetyl CoA carboxylase-type 1, amino acids 1-120. The fragment was expressed as a biotinylated fusion protein in E. coli. The enzyme assay was conducted in a 5 ul reaction mixture containing 60 mM HEPES, pH7.0, 50 mM NaCL, 1 mM DTT, 5 mM MgCL2, 0.05% Tween-20, 100 uM ATP and with 25 uM AMP as a positive control. The reaction was carried out at room temperature for 60 minutes and stopped by addition of 5 ul of stop solution consisting of 20 mM EDTA, 0.1% BSA, 1% Triton-X-100, 0.01% Tween-20, 100 mM Tris pH8.0, 1:5,000 dilution of internally producted anti-pS79 (acetyl CoA carboxylase-1) purified rabbit polyclonal antibody, 40 ug/ml of AlphaScreen (Perkin Elmer) Acceptor beads and 40 ug/ml of AlphaScreen (Perkin Elmer) donor beads. The reaction mixture was further incubated at RT for 2 hours and analyzed on Fusion-Alpha microplate analyzer.
The AMPK assay was performed in a 25 ul reaction volume with the same reaction buffer as AMPK alpha assay at 30 C for 30 minutes. The reaction was stopped with SDS-PAGE sample buffer. The phosphorylated-GST-ACC was subjected to western blot analysis with anti-phospho-serine 79-ACC1 antibody (Cell Signaling Technologies). AMPK used in the assays described above was partially purified (Blazquez, C. et. al.).
The AMP-activated protein kinase is involved in the regulation of ketone body production by astrocytes. J. Neurochem. 73: 1674 (1999)) from HEKs (a human embryonic kidney cell line) and unless otherwise specified, chemicals used in the above assay were supplied by Sigma.

SMILES | EC50 [µM]
N#Cc1c(O)nc2cccc(-c3ccc(-c4ccccc4O)cc3)c2c1O [Compound 3, 5-(2-Hydroxybiphenyl)-2,4-dihydroxyquinoline-3-carbonitrile] | ≤ 10
N#Cc1c(O)nc2nc(-c3ccc(-c4ccccc4O)cc3)[nH]c2c1O [Compound 7, 3-(2-Hydroxybiphenyl)-4,6-dihydroxyimidazo[5,4-b]pyridine-5-carbonitrile] | ≤ 10
N#Cc1c(O)nc2ncc(-c3ccc(-c4ccccc4O)cc3)cc2c1O [Compound 8, 6-(2-Hydroxybiphenyl)-2,4-dihydroxy-1,8-naphthyridine-3-carbonitrile] | ≤ 10
N#Cc1c(O)cc2onc(-c3ccc(-c4ccccc4O)cc3)c2c1O [Compound 9, 3-(2-Hydroxybiphenyl)-4,6-dihydroxyisoxazolo[5,4-b]pyridine-5-carbonitrile] | 10 to 50

Now from value to compound:

EC50 [µM] | SMILES
10 to 50 | O=Cc1c[nH]c2ccc(-c3ccc(-c4ccccc4O)cc3)cc12 [Compound 4, 5-(2-Hydroxybiphenyl)-1H-indole-3-carbaldehyde]
10 to 50 | Oc1ccccc1-c1ccc(-c2ccc3[nH]ccc3c2)cc1 [Compound 1, 5-(2-Hydroxybiphenyl)-1H-indole]
≤ 10 | N#Cc1c(O)nc2ccc(-c3ccc(-c4ccccc4O)cc3)cc2c1O [Compound 2, 6-(2-Hydroxybiphenyl)-2,4-dihydroxyquinoline-3-carbonitrile]
≤ 10 | N#Cc1c[nH]c2ccc(-c3ccc(-c4ccccc4O)cc3)cc12 [Compound 5, 5-(2-Hydroxybiphenyl)-1H-indole-3-carbonitrile]
≥ 50 | O/N=C/c1c[nH]c2ccc(-c3ccc(-c4ccccc4O)cc3)cc12 [Compound 6, 5-(2-Hydroxybiphenyl)-1H-indole-3-carbaldehyde oxime]
